According to paper PMC8536644, “Enigmatic mechanism of the N-vinylpyrrolidone hepatocarcinogenicity in the rat” (Archives of Toxicology, 2021):
“And” between values parts separate entries of the source, which are not always exact repeats. Identical values can stand only once.

Columns and labels:
[1] = tested on: polychromatic erythrocytes of rat bone marrow; settings: in vivo; cited from earlier work
CYP1A [2] = test: EROD inhibition control in Aroclor 1254-induced rat liver microsomes; type: biochemical; settings: for EROD enzyme activity: 0 µM control 821.5 ± 54.9
Procedure: (§1) For determination of the enzyme activities in triplicates, 85 µL master mix (100 mM TrisHCl pH 7.5, 2 mM 5’AMP, 5 mM G-6-P, 10 U G-6-P-DH, 10 mM Dicumarol, 10 mM MgCl2, either 2 µM EROD or 10 µM PROD or 5 µM BROD) was added to 10 µL microsomal fraction (1 mg protein/mL). The reaction was started by the addition of 5 µL 2 mM NADPH (dissolved in 100 mM TrisHCl pH 7.5) followed by incubation at 37 °C for 16 min. The activity was determined by measuring the increase of the fluorescence (excitation at 550 nm, emission at 585 nm) due to resorufin formation compared with resorufin standards, which had been prepared by dissolving tenfold concentrated solutions in DMSO, which were then diluted tenfold in 100 mM TrisHCl pH 7.5.
As a method control the described AROD assay was performed with microsomal fractions derived from liver and lung of male Wistar rats which had been treated i.p. for 5 days with aroclor 1254 (500 mg/kg bw). These control assays were performed in presence of 1 μM, 10 μM or 100 μM NVP, respectively, in order to check for potential interactions of NVP with the substrate turnover in the AROD assay.

Drosophila melanogaster = settings: ref Knaap et al. [1985]; cited from earlier work
(liver) DNA = tested on: (liver) DNA; design: method as in Inveresk Research International (IRI) [1986]; settings: male CD rats, i.p. 14C-NVP 150 and 300 mg/kg; ref Inveresk Research International (IRI) [1986]; cited from earlier work
Salmonella strains = settings: three independent tests in four Salmonella strains; ref MAK [1994]; cited from earlier work
CYP1A [3] = test: EROD assay, liver microsomes of NVP-treated rats (AhR marker); type: in vivo, rat; settings: male rats
Procedure: The alkoxyresorufin dealkylase (AROD) assays were based on the method by Burke et al. ([1994]).
The frozen livers and lungs of the NVP-treated male Wistar rats were thawed and washed with isotonic (0.9%) NaCl solution. The tissues were ice-cooled homogenized (1 g tissue: 3 mL 0.25 M saccharose in 1 mM disodium EDTA, pH 7.4) and centrifuged (9000 g, 15 min, 4 °C). The supernatant fraction was centrifuged (100 000 g, 60 min, 4 °C). The resulting supernatant fraction was used for the palmitoyl-CoA-oxidase assay described further down. The pellet was taken up in 150 mM aqueous KCl solution, recentrifuged (100 000 g, 60 min, 4 °C) and the pellet taken up in 1 mL/g liver or 0.5 mL/g lung resuspension buffer (1 mM GSH, 1 mM disodium EDTA, 4 mM MgCl2, 0.1 M KH2PO4, pH 7.5 and 4% glycerol). Aliquots were stored at − 80 °C.
as §1

CYP4A = test: Lauric acid hydroxylase assay, 12-hydroxylation (PPARα marker); type: in vivo, rat
Procedure: ^14C-labelled lauric acid (55 mCi/mmol) dissolved in ethanol (0.1 mCi/mL; total volume 2.5 mL) was purchased from American Radiolabeled Chemicals. 10 µL of this solution were diluted with methanol to 2 mL. The purity was checked by radio-HPLC. For the enzyme activity determinations 1.21 mL of this solution were treated in the thermomixer at 40 °C and 300 rpm until the ethanol was completely evaporated. The residue was taken up in 550 µL DMSO and checked on the incubation days by radio-HPLC and by liquid scintillation counting (LSC). To this end the just-mentioned solution in DMSO (nominally 8.14 MBq/mL) was 100-fold diluted with methanol, 50 µL of the resultant solution used for the HPLC analysis, 100 µL for the LSC analysis (488,400 dpm/100 µL).
For the determination of the lauric acid hydroxylase activity the liver microsomal fractions (prepared as described in the preceding chapter “Aryl hydrocarbon receptor”) derived from the NVP-treated (and untreated control) male rats were adjusted with TrisHCl pH 7.5–20 mg protein/mL. Obtained samples were measured in duplicates. Controls were heat-denatured samples (15 min at 99 °C in the thermomixer at 450 rpm), zero-time samples (reaction stopped immediately after adding substrate) and buffer controls (TrisHCl pH 7.5, no microsomal protein). 155 µL master mix (100 mM TrisHCl pH 7.5, 10 mM MgCl2, 2 mM 5’AMP-Na2, 5 mM G-6-P, 10 U G-6-P-DH) and 30 µL sample were preincubated for 3 min at 37 °C. Subsequently 10 µL of a 2-mM NADPH solution and 5 µL ^14C-lauric acid (8.14 MBq/mL) were added (lauric acid final concentration in the incubation 100 µM). The reaction was run for 20 min at 37 °C in the thermomixer (450 rpm) and stopped by the addition of 200 µL ice-cold acetone. […]

[4] = tested on: p53 transcription factor activity; design: method as in ToxCast (comptox.epa.gov dashboard); settings: ref ToxCast (comptox.epa.gov dashboard); read-out: AC50 of the p53 transcription factor activity modulation; cited from earlier work
mice = tested on: mice; design: method as in Klimisch et al. [1997b]; settings: inhalation, ref Klimisch et al. [1997b]; cited from earlier work
[5] = lauric acid 12-hydroxylation, liver microsomes, 20 ppm NVP, individual animals 19-24

**Q.** For `CCOS(C)(=O)=O` [EMS, ethyl methanesulfonate, reference compound], which “Micronuclei in PCE, historical positive controls” value [1] is on record?
**A.** 6.1–21.9 ‰

**Q.** With `C=CN1CCCC1=O` [NVP, N-vinylpyrrolidone] as the molecule, how does the EROD enzyme activity (CYP1A [2]; 1 µM NVP) read?
**A.** 859.9 ± 14.1 pmol/min/mg protein

**Q.** What about the EROD enzyme activity (CYP1A [2]; 10 µM NVP) of the same molecule?
**A.** 827.9 ± 13.6 pmol/min/mg protein

**Q.** What about the EROD enzyme activity (CYP1A [2]; 100 µM NVP) of the same molecule?
**A.** 858.9 ± 33.9 pmol/min/mg protein

**Q.** And the “Inhibition of EROD activity” value (CYP1A [2]; 1, 10 or 100 µM NVP)?
**A.** does not lead to inhibition

**Q.** What about the “Sex-linked recessive lethal test result” value (Drosophila melanogaster) of the same molecule?
**A.** negative

**Q.** What about the “Binding of NVP or its metabolites to (liver) DNA” value ((liver) DNA) of the same molecule?
**A.** no binding

**Q.** And the “Ames Salmonella back mutation test result” value (Salmonella strains)?
**A.** negative

**Q.** And the “Liver microsomal EROD activity” value (CYP1A [3]; 5 ppm)?
**A.** 20.5 ± 3.6 pmol/min/mg protein

**Q.** What about the “Liver microsomal EROD activity” value (CYP1A [3]; 10 ppm) of the same molecule?
**A.** 22.0 ± 5.8 pmol/min/mg protein

**Q.** And the “Liver microsomal EROD activity” value (CYP1A [3]; 20 ppm)?
**A.** 16.9 ± 6.4 pmol/min/mg protein

**Q.** What about the “Increase of lauric acid 12-hydroxylation vs vehicle control” value (CYP4A; 20 ppm, not statistically significant) of the same molecule?
**A.** 1.3 fold

**Q.** And the “ω-hydroxylase (CYP4A-activity), enzyme activity individual” value (CYP4A; [5])?
**A.** 20,495 peak surface/min/mg protein and 20,593 peak surface/min/mg protein and 10,543 peak surface/min/mg protein and 14,545 peak surface/min/mg protein and 15,406 peak surface/min/mg protein and 6779 peak surface/min/mg protein

**Q.** What about the “ω-hydroxylase (CYP4A-activity), peak surface” value (CYP4A; [5]) of the same molecule?
**A.** 27,314 and 28,341 and 15,814 and 21,818 and 23,109 and 11,088

**Q.** And the AC50 [4]?
**A.** 40 nM

**Q.** And the “Concentration at which erythrocytes, hematocrit and hemoglobin were reduced” value (mice)?
**A.** 15 ppm

**Q.** What about the “LOAEC, liver (increased gamma-glutamyl transpeptidase and glutathione)” value (mice) of the same molecule?
**A.** 10 ppm

**Q.** And the “LOAEC, nasal mucosa (inflammation, olfactory epithelium atrophy, basal cell hyperplasia)” value (mice)?
**A.** 5 ppm
